Source: patent US6706663B2, “Herbicidal 3-heterocyclic substituted benzisothiazole and benzisoxazole compounds” (Wyeth, priority 2000, dated 2004)

Legend:
[1] = test system: ABUTH (Abutilon theophrasti); experiment: Preemergence herbicidal evaluation; assay type: in vivo, Medic.; conditions: preemergence, rated 4-5 weeks after treatment
ORYSAT (Rice, Tebonnet) [2] = experiment: Preemergence herbicidal evaluation; assay type: in vivo, Oryza sativa, (L.) Tebonnet; conditions: preemergence, rated 4-5 weeks after treatment
ZEAMX (Corn, Field) [3] = experiment: Preemergence herbicidal evaluation; assay type: in vivo, Zea mays, L.; conditions: preemergence, rated 4-5 weeks after treatment
IPOSS (Ipomoea Spp.) [4] = experiment: Preemergence herbicidal evaluation; assay type: in vivo; conditions: rated 4-5 weeks after treatment
Description: (§1) Results of herbicide evaluation are expressed on a rating scale (0-9). The scale is based upon a visual observation of plant stand, vigor, malformation, size, chlorosis and overall plant appearance as compared with a control.
The preemergence herbicidal activity of the test compounds of the present invention is exemplified by the following tests in which the seeds of a variety of monocotyledonous and dicotyledonous plants are separately mixed with potting soil and planted on top of approximately one inch of soil in separate pint cups. After planting, the cups are sprayed with the selected aqueous acetone solution containing test compound in sufficient quantity to provide the equivalent of about […] per hectare of test compound per cup. The treated cups are then placed on greenhouse benches, watered and cared for in accordance with conventional greenhouse procedures. From four to five weeks after treatment, the tests are terminated and each cup is examined and rated according to the rating system provided in Example 87. The plant species used and the compounds evaluated are the same as those shown in Example 87.

[5] = test system: TRZAWR (Wheat, Winter, cv Riband); experiment: Preemergence herbicidal evaluation; assay type: in vivo, Triticum aestivum; conditions: preemergence, rated 4-5 weeks after treatment
Outline: (§2)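 Scores (0–9) reflect visual comparison with control plants for stand, vigor, malformation, size and chlorosis. Seeds in potting soil received a post-planting spray of compound in aqueous acetone and grew in a greenhouse until assessment 4–5 weeks later.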

[6] = test system: AMBEL (Ambrosia artemisifolia); experiment: Preemergence herbicidal evaluation; assay type: in vivo, L.; conditions: preemergence, rated 4-5 weeks after treatment
Outline: as §2

[7] = test system: CHEAL (Chenopodium album); experiment: Preemergence herbicidal evaluation; assay type: in vivo, L.; conditions: preemergence, rated 4-5 weeks after treatment
Outline: as §2

[8] = test system: GLXMAW (Soybean, Williams); experiment: Preemergence herbicidal evaluation; assay type: in vivo, Glycine max, (L.) Merr. cv Williams; conditions: preemergence, rated 4-5 weeks after treatment
GALAP (Galium aparine) [9] = experiment: Preemergence herbicidal evaluation; assay type: in vivo; conditions: preemergence, rated 4-5 weeks after treatment
Outline: as §2

[10] = test system: ECHCG (Echinochloa crus-galli); experiment: Preemergence herbicidal evaluation; assay type: in vivo, (L.) Beau; conditions: preemergence, rated 4-5 weeks after treatment
Outline: as §2

SETVI (Setaria viridis) [11] = experiment: Preemergence herbicidal evaluation; assay type: in vivo, (L.) Beau; conditions: preemergence, rated 4-5 weeks after treatment
Outline: as §2

[12] = test system: ABUTH (Abutilon theophrasti); experiment: Postemergence herbicidal evaluation; assay type: in vivo, Medic.; conditions: postemergence
Outline: (§3)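 Seedlings grown about two weeks in flats, sprayed, then kept under standard greenhouse care. Rated visually 4–5 weeks after treatment on a 0–9 scale (stand, vigour, malformation, size, chlorosis, overall appearance) relative to untreated control; repeat tests averaged.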

GLXMA (Soybean) = experiment: Postemergence herbicidal evaluation; assay type: in vivo, Glycine max, (L.) Merr.; conditions: postemergence
Procedure: (§4) In the tests, seedling plants are grown in jiffy flats for about two weeks. The test compounds are dispersed in 50/50 acetone/water mixtures containing 0.5% TWEEN® 20, a polyoxyethylene sorbitan monolaurate surfactant of Atlas Chemical Industries, in sufficient quantities to provide the equivalent of about 0.0040 kg to 1.000 kg per hectare of active compound when applied to the plants through a spray nozzle operating at 40 psi for a predetermined time. After spraying, the plants are placed on greenhouse benches and are cared for in accordance with conventional greenhouse procedures. From four to five weeks after treatment, the seedling plants are examined and rated according to the rating system set forth below. Where more than one test is involved for a given compound, the data are averaged.
as §1

SETVI (Setaria viridis) [13] = experiment: Postemergence herbicidal evaluation; assay type: in vivo, (L.) Beau; conditions: postemergence
Outline: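 Seedlings about two weeks old were sprayed with compound in 50/50 acetone/water plus 0.5% TWEEN 20, at the equivalent of about 0.0040 to 1.000 kg/ha. Plants were kept in a greenhouse and visually rated 0-9 against a control four to five weeks after treatment. Repeat tests were averaged.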

[14] = test system: AMBEL (Ambrosia artemisifolia); experiment: Postemergence herbicidal evaluation; assay type: in vivo, L.; conditions: postemergence
Outline: as §3

[15] = test system: CHEAL (Chenopodium album); experiment: Postemergence herbicidal evaluation; assay type: in vivo, L.; conditions: postemergence
Outline: as §3

[16] = test system: IPOHE (Ipomoea hederacea); experiment: Postemergence herbicidal evaluation; assay type: in vivo, (L.) Jacq.; conditions: postemergence
Outline: as §3

[17] = test system: ECHCG (Echinochloa crus-galli); experiment: Postemergence herbicidal evaluation; assay type: in vivo, (L.) Beau; conditions: postemergence
Outline: as §3

ZEAMX (Corn, Field) [18] = experiment: Postemergence herbicidal evaluation; assay type: in vivo, Zea mays, L.; conditions: postemergence
Outline: as §3

IPOSS (Ipomoea Spp.) [19] = experiment: Postemergence herbicidal evaluation; assay type: in vivo; conditions: rate 0.3000 kg/ha
Procedure: as §4, §1

ORYSAT (Rice, Tebonnet) [20] = experiment: Postemergence herbicidal evaluation; assay type: in vivo, Oryza sativa, (L.) Tebonnet; conditions: postemergence, rate 0.3000 kg/ha
Outline: as §3

[21] = test system: GLXMAW (Soybean, Williams); experiment: Postemergence herbicidal evaluation; assay type: in vivo, Glycine max, (L.) Merr. cv Williams; conditions: postemergence, rate 0.3000 kg/ha
Outline: as §3

[22] = test system: TRZAWR (Wheat, Winter, cv Riband); experiment: Postemergence herbicidal evaluation; assay type: in vivo, Triticum aestivum; conditions: postemergence, rate 0.3000 kg/ha
Outline: as §3

GALAP (Galium aparine) [23] = experiment: Postemergence herbicidal evaluation; assay type: in vivo; conditions: postemergence, rate 0.3000 kg/ha
Outline: as §3

SMILES: Cn1c(C(F)(F)F)cc(=O)n(-c2ccc3snc(C4(O)N=C(c5ccccc5)NC4=O)c3c2)c1=O (stereo not drawn) [Compound 94, 3-[3-(4-hydroxy-5-oxo-2-phenyl-2-imidazolin-4-yl)-1,2-benzisothiazol-5-yl]-1-methyl-6-(trifluoromethyl)uracil]
- Preemergence herbicidal rating ABUTH ([1]; rate 1.0000 kg/ha): 7.0
- Preemergence herbicidal rating ORYSAT (ORYSAT (Rice, Tebonnet) [2]; rate 1.0000 kg/ha): 6.0
- Preemergence herbicidal rating ZEAMX (ZEAMX (Corn, Field) [3]; rate 1.0000 kg/ha): 3.0
- Preemergence herbicidal rating IPOSS (IPOSS (Ipomoea Spp.) [4]; rate 1.0000 kg/ha): 7.0
- Preemergence herbicidal rating TRZAWR ([5]; rate 1.0000 kg/ha): 5.0
- Preemergence herbicidal rating AMBEL ([6]; rate 1.0000 kg/ha): 5.0
- Preemergence herbicidal rating CHEAL ([7]; rate 1.0000 kg/ha): 8.0
- Preemergence herbicidal rating GLXMAW ([8]; rate 1.0000 kg/ha): 5.0
- Preemergence herbicidal rating GALAP (GALAP (Galium aparine) [9]; rate 1.0000 kg/ha): 8.0
- Preemergence herbicidal rating ECHCG ([10]; rate 1.0000 kg/ha): 2.0
- Preemergence herbicidal rating SETVI (SETVI (Setaria viridis) [11]; rate 1.0000 kg/ha): 5.0

SMILES: Cn1c(C(F)(F)F)cc(=O)n(-c2ccc3snc(C4(O)N=C(C(C)(C)C)NC4=O)c3c2)c1=O (stereo not drawn) [Compound 95, 3-[3-(2-tert-butyl-4-hydroxy-5-oxo-2-imidazolin-4-yl)-1,2-benzisothiazol-5-yl]-1-methyl-6-(trifluoromethyl)uracil]
- ABUTH herbicidal rating ([12]; rate 0.0320 kg/ha): 9.0
- ABUTH herbicidal rating ([12]; rate 0.0620 kg/ha): 9.0
- GLXMA herbicidal rating (GLXMA (Soybean); rate 0.0320 kg/ha): 8.0
- GLXMA herbicidal rating (GLXMA (Soybean); rate 0.0620 kg/ha): 8.0
- SETVI herbicidal rating (SETVI (Setaria viridis) [13]; rate 0.0320 kg/ha): 4.0
- SETVI herbicidal rating (SETVI (Setaria viridis) [13]; rate 0.0620 kg/ha): 7.0
- AMBEL herbicidal rating ([14]; rate 0.0320 kg/ha): 4.0
- AMBEL herbicidal rating ([14]; rate 0.0620 kg/ha): 8.0
- CHEAL herbicidal rating ([15]; rate 0.0320 kg/ha): 8.0
- CHEAL herbicidal rating ([15]; rate 0.0620 kg/ha): 9.0
- IPOHE herbicidal rating ([16]; rate 0.0320 kg/ha): 8.0
- IPOHE herbicidal rating ([16]; rate 0.0620 kg/ha): 9.0
- ECHCG herbicidal rating ([17]; rate 0.0320 kg/ha): 2.0
- ECHCG herbicidal rating ([17]; rate 0.0620 kg/ha): 3.0
- ZEAMX herbicidal rating (ZEAMX (Corn, Field) [18]; rate 0.0320 kg/ha): 3.5
- ZEAMX herbicidal rating (ZEAMX (Corn, Field) [18]; rate 0.0620 kg/ha): 3.5

SMILES: Cn1c(C(F)(F)F)cc(=O)n(-c2ccc3snc(C4(O)C(=O)NC(=N)C4(C)C)c3c2)c1=O (stereo not drawn) [Compound 96]
- ABUTH herbicidal rating ([12]; rate 0.0320 kg/ha): 3.0
- ABUTH herbicidal rating ([12]; rate 0.0620 kg/ha): 4.0
- ABUTH herbicidal rating ([12]; rate 0.3000 kg/ha): 9.0
- GLXMA herbicidal rating (GLXMA (Soybean); rate 0.0320 kg/ha): 5.5
- GLXMA herbicidal rating (GLXMA (Soybean); rate 0.0620 kg/ha): 6.0
- IPOSS herbicidal rating (IPOSS (Ipomoea Spp.) [19]): 3.0
- ORYSAT herbicidal rating (ORYSAT (Rice, Tebonnet) [20]): 0.0
- GLXMAW herbicidal rating [21]: 5.0
- SETVI herbicidal rating (SETVI (Setaria viridis) [13]; rate 0.0320 kg/ha): 2.0
- SETVI herbicidal rating (SETVI (Setaria viridis) [13]; rate 0.0620 kg/ha): 2.0
- SETVI herbicidal rating (SETVI (Setaria viridis) [13]; rate 0.3000 kg/ha): 4.0
- TRZAWR herbicidal rating [22]: 0.0
- AMBEL herbicidal rating ([14]; rate 0.0320 kg/ha): 4.0
- AMBEL herbicidal rating ([14]; rate 0.0620 kg/ha): 5.0
- AMBEL herbicidal rating ([14]; rate 0.3000 kg/ha): 6.0
- CHEAL herbicidal rating ([15]; rate 0.0320 kg/ha): 3.0
- CHEAL herbicidal rating ([15]; rate 0.0620 kg/ha): 4.0
- CHEAL herbicidal rating ([15]; rate 0.3000 kg/ha): 9.0
- IPOHE herbicidal rating ([16]; rate 0.0320 kg/ha): 3.0
- IPOHE herbicidal rating ([16]; rate 0.0620 kg/ha): 6.0
- ECHCG herbicidal rating ([17]; rate 0.0320 kg/ha): 1.0
- ECHCG herbicidal rating ([17]; rate 0.0620 kg/ha): 2.0
- ECHCG herbicidal rating ([17]; rate 0.3000 kg/ha): 0.0
- Preemergence herbicidal rating ABUTH ([1]; rate 0.3000 kg/ha): 6.0
- Preemergence herbicidal rating ORYSAT (ORYSAT (Rice, Tebonnet) [2]; rate 0.3000 kg/ha): 0.0
- Preemergence herbicidal rating ZEAMX (ZEAMX (Corn, Field) [3]; rate 0.3000 kg/ha): 0.0
- Preemergence herbicidal rating IPOSS (IPOSS (Ipomoea Spp.) [4]; rate 0.3000 kg/ha): 4.0
- GALAP herbicidal rating (GALAP (Galium aparine) [23]): 0.0
- ZEAMX herbicidal rating (ZEAMX (Corn, Field) [18]; rate 0.0320 kg/ha): 3.0
- ZEAMX herbicidal rating (ZEAMX (Corn, Field) [18]; rate 0.0620 kg/ha): 3.0
- ZEAMX herbicidal rating (ZEAMX (Corn, Field) [18]; rate 0.3000 kg/ha): 2.0
- Preemergence herbicidal rating TRZAWR ([5]; rate 0.3000 kg/ha): 0.0
- Preemergence herbicidal rating AMBEL ([6]; rate 0.3000 kg/ha): 0.0
- Preemergence herbicidal rating CHEAL ([7]; rate 0.3000 kg/ha): 7.0
- Preemergence herbicidal rating GLXMAW ([8]; rate 0.3000 kg/ha): 0.0
- Preemergence herbicidal rating GALAP (GALAP (Galium aparine) [9]; rate 0.3000 kg/ha): 6.0
- Preemergence herbicidal rating ECHCG ([10]; rate 0.3000 kg/ha): 0.0
- Preemergence herbicidal rating SETVI (SETVI (Setaria viridis) [11]; rate 0.3000 kg/ha): 0.0

SMILES: CCN=C1NC(=O)C(OC)(c2nsc3ccc(-n4c(=O)cc(C(F)(F)F)n(C)c4=O)cc23)N1 (stereo not drawn) [Compound 98, 3-[3[4-methoxy-2-(ethylimino)-5-oxo-4-imidazolidinyl]-1,2-benzisothiazol-5-yl]-1-methyl-6-(trifluoromethyl)uracil]
- ABUTH herbicidal rating ([12]; rate 0.0320 kg/ha): 9.0
- ABUTH herbicidal rating ([12]; rate 0.0620 kg/ha): 9.0
- GLXMA herbicidal rating (GLXMA (Soybean); rate 0.0320 kg/ha): 8.0
- GLXMA herbicidal rating (GLXMA (Soybean); rate 0.0620 kg/ha): 8.0
- SETVI herbicidal rating (SETVI (Setaria viridis) [13]; rate 0.0320 kg/ha): 3.0
- SETVI herbicidal rating (SETVI (Setaria viridis) [13]; rate 0.0620 kg/ha): 3.0
- AMBEL herbicidal rating ([14]; rate 0.0320 kg/ha): 8.0
- AMBEL herbicidal rating ([14]; rate 0.0620 kg/ha): 8.0
- CHEAL herbicidal rating ([15]; rate 0.0320 kg/ha): 6.0
- CHEAL herbicidal rating ([15]; rate 0.0620 kg/ha): 8.0
- IPOHE herbicidal rating ([16]; rate 0.0320 kg/ha): 9.0
- IPOHE herbicidal rating ([16]; rate 0.0620 kg/ha): 8.0
- ECHCG herbicidal rating ([17]; rate 0.0320 kg/ha): 2.0
- ECHCG herbicidal rating ([17]; rate 0.0620 kg/ha): 2.0
- ZEAMX herbicidal rating (ZEAMX (Corn, Field) [18]; rate 0.0320 kg/ha): 3.5
- ZEAMX herbicidal rating (ZEAMX (Corn, Field) [18]; rate 0.0620 kg/ha): 3.5
